From patent publication US6277825A (priority 1999, dated 2001)
Several values for one entry are separate records, joined by “and”; a condition that tells them apart may be missing. Identical values can stand only once.

Tests used:
[1] = test system: young (<2 weeks old) mice; assay type: in vivo; details: mouse, in vivo
[2] = test system: young (<2 weeks old) mice; assay type: in vivo; details: mouse, in vivo; remark: listed apart in the source
[3] = test system: young (<2 weeks old) mice; assay type: in vivo; details: mouse, in vivo; remark: listed apart in the source
[4] = test system: Frings audiogenic seizure-susceptible mice; details: mouse, in vivo
NR1-1b/NR2B NMDA subtype = molecular target: T1, NR1-1b/NR2B NMDA subtype (Homo sapiens, UniProt Q05586+Q13224); assay: cell-based
T1 construct: expressed in transfected cells; host or cells: oocytes
T1 sequence (Q13224 27-1484, other chains not shown): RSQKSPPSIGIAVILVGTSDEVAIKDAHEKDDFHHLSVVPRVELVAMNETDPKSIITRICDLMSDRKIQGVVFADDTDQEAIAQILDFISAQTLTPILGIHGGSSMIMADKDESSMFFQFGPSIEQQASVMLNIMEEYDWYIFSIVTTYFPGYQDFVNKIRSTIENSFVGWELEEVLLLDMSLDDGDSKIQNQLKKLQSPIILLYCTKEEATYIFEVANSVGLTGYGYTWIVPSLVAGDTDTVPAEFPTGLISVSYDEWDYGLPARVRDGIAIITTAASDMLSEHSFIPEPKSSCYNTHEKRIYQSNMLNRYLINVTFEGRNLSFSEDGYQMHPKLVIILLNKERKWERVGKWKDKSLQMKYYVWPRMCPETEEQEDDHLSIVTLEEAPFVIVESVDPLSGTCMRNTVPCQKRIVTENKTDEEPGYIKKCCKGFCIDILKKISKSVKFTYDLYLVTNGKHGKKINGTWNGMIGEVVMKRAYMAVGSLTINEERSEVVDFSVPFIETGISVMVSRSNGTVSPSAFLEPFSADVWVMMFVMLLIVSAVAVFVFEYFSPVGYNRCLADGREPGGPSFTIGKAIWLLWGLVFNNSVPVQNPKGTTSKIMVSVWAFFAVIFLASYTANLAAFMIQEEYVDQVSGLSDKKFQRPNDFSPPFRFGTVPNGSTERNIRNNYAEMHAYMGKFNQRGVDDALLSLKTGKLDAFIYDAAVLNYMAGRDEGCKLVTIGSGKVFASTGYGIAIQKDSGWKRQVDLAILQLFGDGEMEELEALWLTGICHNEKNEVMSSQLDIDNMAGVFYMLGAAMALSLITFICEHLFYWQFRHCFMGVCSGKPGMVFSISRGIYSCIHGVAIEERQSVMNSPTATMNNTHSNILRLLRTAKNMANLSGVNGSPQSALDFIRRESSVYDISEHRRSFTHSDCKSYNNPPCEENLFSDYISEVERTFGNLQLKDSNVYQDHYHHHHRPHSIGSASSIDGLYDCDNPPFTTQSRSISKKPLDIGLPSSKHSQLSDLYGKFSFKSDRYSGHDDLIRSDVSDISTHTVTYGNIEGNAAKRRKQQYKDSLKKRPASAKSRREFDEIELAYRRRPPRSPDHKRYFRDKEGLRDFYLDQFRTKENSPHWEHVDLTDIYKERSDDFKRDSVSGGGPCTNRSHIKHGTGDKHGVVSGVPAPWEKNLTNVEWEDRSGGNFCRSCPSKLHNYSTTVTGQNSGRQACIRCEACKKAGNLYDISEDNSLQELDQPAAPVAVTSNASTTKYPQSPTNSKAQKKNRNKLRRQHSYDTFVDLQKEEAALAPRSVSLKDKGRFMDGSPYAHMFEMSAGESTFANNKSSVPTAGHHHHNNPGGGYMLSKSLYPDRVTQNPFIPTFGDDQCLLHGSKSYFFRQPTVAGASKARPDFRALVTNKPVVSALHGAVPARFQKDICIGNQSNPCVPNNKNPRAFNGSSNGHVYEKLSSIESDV

CF #1 Mice = test system: CF #1 Mice; parameters: TD50: unit not given beside the values; details: mouse, in vivo
CF No. 1 mice = details: mouse, in vivo

Molecule	Catalepsy Test, positive mice/tested [1]	Sleepy Test, positive mice/tested [2]	Righting Reflex, mice that lost reflex/tested [3]	anticonvulsant activity (CF No. 1 mice)	further results
Conantokin Oc [Con Oc]	0/3	2/3 and 0/3	0/3	–	–
CC[C@H](C)[C@H](NC(=O)[C@H](CC(N)=O)NC(=O)[C@H](CC(C(=O)O)C(=O)O)NC(=O)[C@H](CCCNC(=N)N)NC(=O)[C@H](C)NC(=O)[C@H](CC(C)C)NC(=O)[C@H](CC(C(=O)O)C(=O)O)NC(=O)[C@H](C)NC(=O)[C@H](C)NC(=O)[C@H](CCSC)NC(=O)[C@H](CCCCN)NC(=O)[C@H](C)NC(=O)[C@@H](NC(=O)[C@H](CC(C(=O)O)C(=O)O)NC(=O)[C@H](CC(C(=O)O)C(=O)O)NC(=O)[C@H](CCC(=O)O)NC(=O)CN)C(C)C)C(=O)N[C@@H](C)C(=O)N[C@@H](CCCCN)C(=O)NCC(=O)N[C@H]1CSSC[C@@H](C(=O)N[C@@H](Cc2ccc(O)cc2)C(=O)N2CCC[C@H]2C(=O)O)NC(=O)[C@H](CC(N)=O)NC(=O)[C@H](C(C)C)NC(=O)[C@H](CCCCN)NC1=O [Con R, Conantokin R]	–	–	–	–	P.I. (TD50/ED50) [4]: 17; Protective Index, PI (TD50/ED50) [4]: 18; TD50 [4]: 0.228; protective index relative to that of valproic acid [4]: at least eight times better; Ki (NR1-1b/NR2B NMDA subtype): 140 nM; inhibition at 3 µM (NR1-1b/NR2B NMDA subtype; read-out: inhibition of the current produced in response to glutamate and glycine): ~95%; P.I. (TD50/ED50) (CF #1 Mice): 3.6; TD50 (CF #1 Mice): ~ 0.300
Conantokin Ca2 [Con Ca2]	–	–	–	anticonvulsant activity	–
Conantokin L [Con L]	4/4 and 3/4	4/4	2/4 and 3/4	anticonvulsant activity	–
Conantokin Qu [Con Qu]	–	–	–	anticonvulsant activity	–
Conantokin Gm [Con Gm]	–	–	–	anticonvulsant activity	–
